The NIST ThermoML archive (doi:10.1021/je800087p)
Numbers after ± are expanded uncertainties.

Experiments:
[1] = refractive index (Na D-line) (dimensionless); conditions: 298.15 K; 101.3 kPa; Liquid; Standard Abbe refractometry
[2] = Liquid; Ebulliometric method (Recirculating still)

| SMILES | refractive index [1] | Normal boiling temperature [2] [°C] |
| --- | --- | --- |
| CC(C)c1ccccc1 [isopropylbenzene] | 1.48829 ± 0.00053 | 152.48 ± 0.1 |
| C1CCOC1 [tetrahydrofuran] | 1.40443 ± 0.0005 | 66.1 ± 0.1 |
| C1CCOCC1 [tetrahydropyran] | 1.41899 ± 0.00063 | 88.16 ± 0.1 |
